Measurements reported in patent US9988606B2, “Generation of airway and lung progenitors and epithelial cells and three-dimensional anterior foregut spheres” (THE TRUSTEES OF COLUMBIA UNIVERSITY IN THE CITY OF NEW YORK, priority 2012, dated 2018).

Columns and labels:
RUES2 cells [1] = assay: Removing individual factors or blocking signaling pathways during the ventralization stage (d6-d15); assay type: cell-based, human
Method: FIG. 3. Effect of removing individual factors or blocking signaling pathways during the ‘ventralization’ stage (d6-d15) on the expression of FOXA2 and NKX2.1 in RUES2 cells cultured according to the protocol shown on the upper right of the figure. 10× tile scans of 9 (3×3) contiguous fields. Immunofluorescence images represent reproducible results from 3 independent experiments.
Day-15, -25 or -48 cultures in 48-well tissue culture plates were fixed with 4% paraformaldehyde for 15 minutes at room temperature and washed twice with PBS. The cells were permeabilized in PBS with 0.25% triton and 5% fetal donkey serum (Jackson ImmunoResearch, West Grove, Pa.) for 30 min and blocked in 5% fetal donkey serum for 2 hours at room temperature. The cell cultures were stained with one, or a combination of two or three of the following primary antibodies: FOXA2/HNF-3β (goat, Santa Cruz Biotechnology, Inc., Santa Cruz, Calif., Cat#sc-6554, clone M-20, 1:50), TTF-1/Nkx2.1 (mouse, Invitrogen, 18-0221, clone 8G7G3/1, 1:100), TTF-1/Nkx2.1 (Rabbit, Seven Hills Bioreagents, Cincinnati, Ohio, Cat#WRAB-1231, 1:1000), p63α (rabbit, Santa Cruz, sc-8344, clone H-129, 1:100), Sox2 (Rabbit, stemgent, 09-0024, 1:100), Pax 6 (rabbit, Covance, Princeton, N.J., Cat#PRB-278P, 1:300), Pax8 (mouse, Abcam, Cambridge, Mass., Cat#ab53490, 1:100), EpCAM (APC conjugated, mouse, BD Biosciences, BDB347200), Tuj1 (mouse, Sigma, T8578, Clone 2G10, 1:4000), Mucin5AC (mouse (Biotin), Abcam, ab79082, clone 45M1, 1:100), Mucin5B (rabbit, Santa Cruz, sc-20119, clone H-300, 1:100), Mucin2 (rabbit, Santa Cruz, sc-15334, clone H-300, 1:100), Foxj1 (mouse, e-bioscience, San Diego, Calif., Cat#14-9965-82, Clone: 2A5, 1:100), cc-10 (goat, Santa Cruz, clone C-20, sc-9770, 1:100), pro-SPC (rabbit, Seven Hills, WRAB-9337, 1:2000), mature-SPC (rabbit, Seven Hills, WRAB-76694, 1:1000), mature SPB (rabbit, Seven Hills, WRAB-48604, 1:1000), ABCA3 (rabbit, Seven Hills, WRAB-70565, 1:100), Mucin1 (Armenian Hamster, NeoMarkers, Fremont, Calif., Cat#HM-1630-P1ABX, clone MH1, 1:100), Podoplanin (rabbit, Santa Cruz, sc-134482 , FL-162, 1:100), AQP5 (goat, Santa Cruz, sc-9890, clone G-19, 1:100). Secondary antibodies were donkey anti-mouse whole IgG-Alexa Fluor 488, 715-545-150, donkey anti-mouse whole IgG-Alexa Fluor 647, 715-605-150, donkey anti-rabbit whole IgG-Alexa Fluor 488, 711-545-152, donkey anti-rabbit whole IgG-Cy3, 711-166-152, donkey anti-goat whole IgG-Alexa Fluor 488, donkey anti-goat whole IgG-Cy3, 705-165-147, donkey anti-goat whole IgG-Alexa Fluor 647, 705-605-147, all from Jackson ImmunoResearch.
For d6-15 lung progenitor induction (9 days) , the AFE from Example 3 were treated with a ‘ventralization’ cocktail containing CHIR99021, 3 μM (WNT signaling agonist), human FGF10, 10 ng/ml; human FGF7, 10 ng/ml; human BMP4, 10 ng/ml; murine EGF, 20 ng/ml and all-trans retinoic acid (ATRA), 0-1 μM (all from R&D, except CHIR99021 from (Stemgent, Cambridge. Mass.) and ATRA from Sigma) in SFD media for 8-10 days. This treatment produced lung and airway progenitor cells (also herein referred to as “lung field progenitor cells”). At this stage, the lung progenitor cells were early, and they might have committed to a lineage of either lung or airway epithelium, but we wouldn't be able to know because the corresponding airway and distal lung specific markers are not expressed at this stage yet.
To examine the contribution of each of the factors to the specification of lung and airway progenitors, each of the factors was withdrawn from the ‘ventralization’ cocktail (i.e., CHIR99021, FGF10, FGF7, BMP4 and EGF), or blocked by specific inhibitors (i.e., NOGGIN as biological inhibitor of BMP4 signaling and IWP2 as pharmacological inhibitor of WNT signaling), or added at different concentrations (i.e., RA 0, 0.05, 0.1, 0.5, 1 μM, and BMS493 (10 μM, Tocris) as RA inhibitor). […]

RUES2 cells [2] = assay: RA concentration in the ventralization cocktail (NKX2.1 and FOXA2 mRNA and protein); assay type: cell-based, human
Method: FIG. 2.(a) Expression of NKX2.1 and FOXA2 mRNA (lower left) and protein (lower right) after culture of RUES2 cells according to the protocol on top of the panel using various concentrations of RA during the ‘ventralization’ stage. Triplicate experiments representative of 3 independent experiments, *, P<0.05, compared with 0.5 μM RA group. (b) 10× tile scan of 25 (5×5) contiguous fields showing expression of FOXA2, SOX2 and NKX2.1 in RUES2 cells cultured according to the protocol on top of the panel. (c) 20× tile scan of 4 (2×2) contiguous fields showing expression of TUJ1, NKX2.1 and FOXA2.1 in RUES2 cells cultured according to the protocol on top of panel (b). […]
Total RNA was extracted using Trizol (Invitrogen), phase lock tubes (5′ Prime) and RNeasy kit (Qiagen, Valencia, Calif.). RNA concentration was measured with a NanoDrop 2000 […] (Thermo Fisher Scientific). […] Real-time quantitative PCR was performed on ABI vii7A Thermocycler [Applied Biosystems (Life Technologies)] using ABI Power SYBR Green PCR Master Mix [Applied Biosystems (Life Technologies)]. […] Absolute quantification of each gene was obtained using a standard curve of serial diluted genomic DNA and normalized to housekeeping genes β-ACTIN and TBP (Tata Box Binding protein). […]

[3] = factor removed from the CFKB cocktail, d6-d15

Molecule: Cc1c[nH]c(-c2cnc(NCCNc3ccc(C#N)cn3)nc2-c2ccc(Cl)cc2Cl)n1 [CHIR]
- effect of removing the factor on generation of FOXA2+ and FOXA2+NKX2.1+ cells (RUES2 cells [1]; [3]): severely reduced

Molecule: Cc1ccc2nc(NC(=O)CSc3nc4c(c(=O)n3-c3ccccc3)SCC4)sc2c1 [IWP2]
- generation of NKX2.1+ cells (RUES2 cells [1]; CHIR removed plus additional blockade of endogenous WNT signaling by the substance): completely abrogated

Molecule: CC1=C(/C=C/C(C)=C/C=C/C(C)=C/C(=O)O)C(C)(C)CCC1 [RA, all-trans retinoic acid]
- NKX2.1 mRNA and NKX2.1+ fraction (RUES2 cells [2]; higher RA concentrations, FOXA2+ endoderm maintained): dropped
- induction of NKX2.1 and FOXA2 mRNA and protein (RUES2 cells [2]; low RA concentrations (0.05-0.1 μM)): optimal induction

B1: FGF10: human FGF10, factor of the ventralization cocktail (protein, UniProt O15520 38-208, looked up)
Fibroblast growth factor 10: QALGQDMVSPEATNSSSSSFSSPSSAGRHVRSYNHLQGDVRWRKLFSFTKYFLKIEKNGKVSGTKKENCPYSILEITSVEIGVVAVKAINSNYYLAMNKKGKLYGSKEFNNDCKLKERIEENGYNTYASFNWQHNGRQMYVALNGKGAPRRGQKTRRKNTSAHFLPMVVHS
- effect of removing the factor on generation of FOXA2+ and FOXA2+NKX2.1+ cells (RUES2 cells [1]; [3]): no effect

B2: NOGGIN: biological inhibitor of BMP4 signaling (protein, UniProt Q13253 28-232, looked up)
Noggin: QHYLHIRPAPSDNLPLVDLIEHPDPIFDPKEKDLNETLLRSLLGGHYDPGFMATSPPEDRPGGGGGAAGGAEDLAELDQLLRQRPSGAMPSEIKGLEFSEGLAQGKKQRLSKKLRRKLQMWLWSQTFCPVLYAWNDLGSRFWPRYVKVGSCFSKRSCSVPEGMVCKPSKSVHLTVLRWRCQRRGGQRCGWIPIQYPIISECKCSC
- generation of FOXA2+NKX2.1+ cells (RUES2 cells [1]; BMP signaling blocked by addition of the substance during ventralization stage): less than 5%

B3: FGF7: human FGF7 (KGF), factor of the ventralization cocktail (protein, UniProt P21781 32-194, looked up)
Fibroblast growth factor 7: CNDMTPEQMATNVNCSSPERHTRSYDYMEGGDIRVRRLFCRTQWYLRIDKRGKVKGTQEMKNNYNIMEIRTVAVGIVAIKGVESEFYLAMNKEGKLYAKKECNEDCNFKELILENHYNTYASAKWTHNGGEMFVALNQKGIPVRGKKTKKEQKTAHFLPMAIT
- effect of removing the factor on generation of FOXA2+ and FOXA2+NKX2.1+ cells (RUES2 cells [1]; [3]): no effect

B4: BMP4: human BMP4, factor of the ventralization cocktail (protein, UniProt P12644 293-408, looked up)
Bone morphogenetic protein 4: SPKHHSQRARKKNKNCRRHSLYVDFSDVGWNDWIVAPPGYQAFYCHGDCPFPLADHLNSTNHAIVQTLVNSVNSSIPKACCVPTELSAISMLYLDEYDKVVLKNYQEMVVEGCGCR
- generation of NKX2.1+ cells after removing the factor (RUES2 cells [1]; [3]): approximately 40%
